Experimental data as given in patent publication US6391901B1, “Thrombin inhibitors” (Eli Lilly and Company, priority 1997, dated 2002).
Where a name gives a salt, the structure may show the parent alone.

Compound: COc1cc(Cc2c(-c3ccc(NS(=O)(=O)c4ccccc4)cc3)sc3cc(O)ccc23)ccc1CN1CCCC1 (as salt: oxalate) [Example 31, 6-Hydroxy-3-[3-methoxy-4-(1-pyrrolidinylmethyl)benzyl]-2-[4-(phenylsulfonylamino)phenyl]benzo[b]thiophene Oxalate]
- melting point: 150 °C (dec.)

Compound: COc1cc(C(=O)c2c(-c3ccc(NS(=O)(=O)c4ccccc4)cc3)sc3cc(O)ccc23)ccc1CN1CCCC1 (as salt: oxalate) [Example 32, 6-Hydroxy-2-[4-(phenylsulfonylamino)phenyl)benzo[b]thiophen-3-yl 3-Methoxy-4-(1-pyrrolidinylmethyl)phenyl Ketone Oxalate]
- melting point: 180 °C (dec.)
